The source of these data is patent US8304410B2, “Pyrrole compounds as inhibitors of mycobacteria, synthesis thereof and intermediates thereto” (priority 2007, dated 2012).

In brackets after ≈: the same amount, converted by molar mass. Several values for one entry are separate records, joined by “and”; a condition that tells them apart may be missing. Identical values can stand only once. Like-named read-outs stand apart in the source and are kept apart here. Some results are limits rather than exact numbers.

One data set deals with M. marinum 6423. The data set can be described thus: Antimycobacterial activity, agar dilution MIC. Type of data set: cell-based.
For data set [1], the system named is intracellular M. tuberculosis. The data set can be described thus: Inhibitory activity on intramacrophagic mycobacteria (J774.A1 murine macrophages). Type of data set: cell-based. The note with it: after 6 days of treatment.
A short description of the next data set: in vitro. The note with it: African green monkey.
For another data set, the system named is M. smegmatis 103599. As to the kind of experiment: Antimycobacterial activity, agar dilution MIC. It counts as cell-based.
The test system of another data set is M. avium 103317. The data set can be described thus: Antimycobacterial activity, agar dilution MIC. It counts as cell-based. A general note: In agar dilution, organisms are placed on agar that contains the substance at set levels.
The test system of another data set is M. tuberculosis H37Rv. The data set can be described thus: Antimycobacterial activity, twofold agar dilution MIC. Type of data set: cell-based. The note with it: Middlebrook 7H11 agar; for MIC: Mycobacterium tuberculosis, H37RV. The procedure:
(§1) Compounds 3a-h were preliminarily assayed against two freshly isolated clinical strains, M. fortuitum CA10 and M. tuberculosis B814, according to the dilution method in agar (Hawkins et al., 1991).
(§2) Growth media were Mueller-Hinton (Difco) containing 10% of OADC (oleic acid, albumine and dextrose complex) for M. fortuitum and Middlebrook 7H11 agar (Difco) with 10% of OADC for M. tuberculosis. Substances were tested at the single dose of 100 μg/mL. The active compounds were then assayed for inhibitory activity against a variety of mycobacterium strains in Middlebrok 7H11 agar by a standard twofold agar dilution method. The mycobacterium species used for biological tests were M. tuberculosis […], M. tuberculosis H37Rv, M. tuberculosis INH-R ATCC, M. tuberculosis RMP-R ATCC and, among atypical mycobacteria, M. smegmatis 103599, M. marinum 6423 and M. avium 103317 (from the Institute Pasteur collection). Plates were incubated at 37° C. for 3 or 28 days. BM212, INH, SM and RIF were used as reference compounds. After cultivation, MICs were read as minimal concentrations of drugs completely inhibiting visible growth of mycobacteria.

The subject of another data set is M. tuberculosis 103471. Described as above. As to conditions: for MIC: Mycobacterium tuberculosis, 103471, Middlebrook 7H11 agar; for M. tuberculosis 103471 MIC: Middlebrook 7H11 agar. It counts as cell-based. The procedure:
as §1, §2

In a further data set the test system is Vero cells. As to conditions: MTT after 72 h.
A further data set has as its system atypical mycobacteria. As to the kind of experiment: Antimycobacterial activity toward atypical mycobacteria. It counts as cell-based. As to conditions: M. avium, M. marinum, M. smegmatis together. The procedure: as §2
[2] abbreviates: Mycobacterium marinum, 6423; read-out: M. marinum 6423 MIC.
[3] abbreviates: Mycolicibacterium smegmatis, 103599; read-out: M. smegmatis 103599 MIC.
Setting [4] is: Mycobacterium avium, 103317; Table 7 head prints strain 103471; read-out: M. avium 103471 MIC.
Where [5] appears, read: Mycobacterium avium, 103317; read-out: M. avium 103317 MIC.
Setting [6] is: Table 7 head prints strain 103471.

The term MIC denotes the lowest concentration found to suppress growth.

As to `CO[C@H]1/C=C/O[C@@]2(C)Oc3c(C)c(O)c4c(O)c(c(/C=N/N5CCN(C)CC5)c(O)c4c3C2=O)NC(=O)/C(C)=C\C=C\[C@H](C)[C@H](O)[C@@H](C)[C@@H](O)[C@@H](C)[C@H](OC(C)=O)[C@@H]1C` [Rifampicin, RIF, Rifampicin], the MIC was 0.6 µg/mL (≈ 0.729 µM) in the data set on M. marinum 6423 (setting [2]); 32 µg/mL (≈ 38.9 µM) in the data set with M. smegmatis 103599 (setting [3]); 0.3 µg/mL (≈ 0.365 µM) in the data set on M. avium 103317 (setting [4]); 0.3 µg/mL (≈ 0.365 µM) with M. avium 103317 (setting [5]); 0.8 µg/mL (≈ 0.972 µM) in the data set on M. tuberculosis H37Rv; 0.25 µg/mL (≈ 0.304 µM) against M. tuberculosis 103471. Further, the “% of growth reduction respect to untreated controls, intracellular M. tuberculosis” value in data set [1] (concentration 0.125 μg/ml) turned out to be 96.59%; in data set [1] (concentration 0.25 μg/ml), 99.83%; in data set [1] (concentration 0.5 μg/ml), 99.93%; in data set [1] (concentration 1 μg/ml), 99.97%. The CC50 in the data set “in vitro” is greater than 64 µg/mL.

For the compound `CSc1ccc(-c2cc(CN3CCN(C)CC3)c(C)n2-c2ccc(F)cc2)cc1` [Compound 3f], in the data set with Vero cells, the “CC50 VERO cells” value was found to be 9.33 µg/mL (≈ 22.8 µM). Also, in the data set on M. avium 103317 (setting [6]), the “M. avium 103471 MIC” value was found to be 4 µg/mL. The “M. tuberculosis H37Rv MIC” value in the data set on M. tuberculosis H37Rv is 2 µg/mL. The “M. tuberculosis 103471 MIC” value in the data set on M. tuberculosis 103471 turned out to be 2 µg/mL.

As to `NNC(=O)c1ccncc1` [Isoniazid, INH, Isoniazid, reference compound], the MIC amounted to 16 µg/mL (≈ 117 µM) in the data set with M. marinum 6423 (Mycobacterium marinum, 6423, read-out: M. marinum 6423 MIC); 64 µg/mL (≈ 467 µM) in the data set with M. smegmatis 103599 (Mycolicibacterium smegmatis, 103599, read-out: M. smegmatis 103599 MIC); 32 µg/mL (≈ 233 µM) with M. avium 103317 (Mycobacterium avium, 103317, read-out: M. avium 103317 MIC); 32 µg/mL (≈ 233 µM) in the data set with M. avium 103317 (Mycobacterium avium, 103317, read-out: M. avium 103471 MIC); 0.25 µg/mL (≈ 1.82 µM) against M. tuberculosis H37Rv; 0.125 µg/mL (≈ 0.911 µM) with M. tuberculosis 103471. In addition, the CC50 in “in vitro” was found to be 32 µg/mL (≈ 233 µM).

Regarding `CSc1ccc(-c2cc(CN3CCSCC3)c(C)n2-c2ccc(C(C)C)cc2)cc1` [Compound 3e], in the data set on Vero cells, the “CC50 VERO cells” value was 37.58 µg/mL (≈ 86.1 µM). Besides, the “M. avium 103471 MIC” value in the data set on M. avium 103317 (setting [6]) amounted to 8 µg/mL. Besides, the “M. tuberculosis H37Rv MIC” value with M. tuberculosis H37Rv came to 0.5 µg/mL. Further, the “M. tuberculosis 103471 MIC” value in the data set with M. tuberculosis 103471 was found to be 0.125 µg/mL.

With `CSc1ccc(-c2cc(CN3CCSCC3)c(C)n2-c2ccc(F)cc2)cc1` [Compound 3a, N-(4-fluorophenyl)-2-methyl-3-thiomorpholinomethyl-5-(4-methylsulfanylphenyl)pyrrole], the “activity toward atypical mycobacteria (MIC range)” value in the data set with atypical mycobacteria lay in the range of 8 to 16 µg/mL. Further, the MIC in the data set on M. marinum 6423 (setting [2]) was 8 µg/mL (≈ 19.4 µM); with M. smegmatis 103599 (setting [3]), 16 µg/mL (≈ 38.8 µM); in the data set with M. avium 103317 (setting [4]) it was 8 µg/mL (≈ 19.4 µM); in the data set on M. avium 103317 (setting [5]), 8 µg/mL (≈ 19.4 µM); with M. tuberculosis H37Rv, 0.125 µg/mL (≈ 0.303 µM); in the data set on M. tuberculosis 103471, less than 0.125 µg/mL. Also, the “% of growth reduction respect to untreated controls, intracellular M. tuberculosis” value was found to be 96.12% in data set [1] (concentration 0.125 μg/ml), 99.02% in data set [1] (concentration 0.25 μg/ml), 99.72% in data set [1] (concentration 0.5 μg/ml) and 99.81% in data set [1] (concentration 1 μg/ml). The same compound had a CC50 in the data set “in vitro” greater than 128 µg/mL. In the data set on M. tuberculosis 103471, the “M. tuberculosis 103471 MIC” value is 0.125 µg/mL and <0.125 µg/mL.

Regarding `CSc1ccc(-c2cc(CN3CCCCC3)c(C)n2-c2ccc(F)cc2)cc1` [Compound 3g], in the data set with M. tuberculosis 103471, the “M. tuberculosis 103471 MIC” value is 8 µg/mL.

In the case of `CSc1ccc(-c2cc(CN3CCSCC3)c(C)n2-c2ccc(C)cc2)cc1` [Compound 3b], the “CC50 VERO cells” value in the data set on Vero cells was found to be 18.40 µg/mL (≈ 45 µM). The “M. avium 103471 MIC” value with M. avium 103317 (setting [6]) is 16 µg/mL. The “M. tuberculosis H37Rv MIC” value in the data set on M. tuberculosis H37Rv came out at 0.25 µg/mL. Further, the “M. tuberculosis 103471 MIC” value in the data set on M. tuberculosis 103471 came out at 0.25 µg/mL.

Regarding `CCCc1ccc(-n2c(-c3ccc(SC)cc3)cc(CN3CCSCC3)c2C)cc1` [Compound 3d], the “CC50 VERO cells” value in the data set with Vero cells amounted to 25.25 µg/mL (≈ 57.8 µM). In addition, the “M. avium 103471 MIC” value with M. avium 103317 (setting [6]) was 8 µg/mL. For the same compound, in the data set on M. tuberculosis H37Rv, the “M. tuberculosis H37Rv MIC” value was 0.5 µg/mL. Moreover, the “M. tuberculosis 103471 MIC” value with M. tuberculosis 103471 stood at 0.125 µg/mL.

For the compound `CCc1ccc(-n2c(-c3ccc(SC)cc3)cc(CN3CCSCC3)c2C)cc1` [Compound 3c], in the data set with Vero cells, the “CC50 VERO cells” value was found to be 17.18 µg/mL (≈ 40.6 µM). The “M. avium 103471 MIC” value with M. avium 103317 (setting [6]) was greater than 16 µg/mL. In the data set with M. tuberculosis H37Rv, the “M. tuberculosis H37Rv MIC” value was 0.25 µg/mL. In addition, the “M. tuberculosis 103471 MIC” value in the data set on M. tuberculosis 103471 stood at 0.25 µg/mL.

For `CSc1ccc(-c2cc(CN3CCOCC3)c(C)n2-c2ccc(F)cc2)cc1` [Compound 3h], in the data set with Vero cells, the “CC50 VERO cells” value amounted to 44.34 µg/mL (≈ 112 µM). In addition, the “M. avium 103471 MIC” value with M. avium 103317 (setting [6]) is 16 µg/mL. Besides, the “M. tuberculosis H37Rv MIC” value with M. tuberculosis H37Rv stood at 0.5 µg/mL. Besides, the “M. tuberculosis 103471 MIC” value in the data set on M. tuberculosis 103471 was 0.25 µg/mL.

Take `Cc1c(CN2CCN(C)CC2)cc(-c2ccc(Cl)cc2)n1-c1ccc(Cl)cc1` [BM 212, 1-{[1,5-bis(4-chlorophenyl)-2-methyl-1H-pyrrol-3-yl]methyl}-4-methylpiperazine]: the MIC in the data set on M. marinum 6423 (setting [2]) stood at 100 µg/mL (≈ 241 µM); with M. smegmatis 103599 (setting [3]) it was 25 µg/mL (≈ 60.3 µM); in the data set with M. avium 103317 (setting [4]) it was 0.4 µg/mL (≈ 0.965 µM); in the data set with M. avium 103317 (setting [5]), 0.4 µg/mL (≈ 0.965 µM); against M. tuberculosis 103471 it was 0.7 µg/mL (≈ 1.69 µM). Further, the “% of growth reduction respect to untreated controls, intracellular M. tuberculosis” value is recorded as 0% in [1] (concentration 0.125 μg/ml), 29.41% in [1] (concentration 0.25 μg/ml), 32.35% in data set [1] (concentration 0.5 μg/ml) and 51.76% in data set [1] (concentration 1 μg/ml). Also, the CC50 in the data set “in vitro” was 4 µg/mL (≈ 9.65 µM). For the same compound, the “M. tuberculosis 103471 MIC” value in the data set on M. tuberculosis 103471 is 0.7 µg/mL.

`[H]/N=C(/N)N[C@H]1[C@H](O)[C@@H](O)[C@H](O[C@@H]2O[C@@H](C)[C@](O)(C=O)[C@H]2O[C@@H]2O[C@@H](CO)[C@H](O)[C@@H](O)[C@@H]2NC)[C@@H](N/C(N)=N\[H])[C@@H]1O` [Streptomycin, SM, Streptomycin, reference compound]: the MIC in the data set with M. marinum 6423 (setting [2]) amounted to 32 µg/mL (≈ 55 µM); in the data set on M. smegmatis 103599 (setting [3]), 8 µg/mL (≈ 13.8 µM); in the data set on M. avium 103317 (setting [4]) it was 8 µg/mL (≈ 13.8 µM); in the data set on M. avium 103317 (setting [5]), 8 µg/mL (≈ 13.8 µM); with M. tuberculosis H37Rv, 0.5 µg/mL (≈ 0.86 µM); against M. tuberculosis 103471, 0.3 µg/mL (≈ 0.516 µM). In the data set “in vitro”, this compound displayed a CC50 of 64 µg/mL (≈ 110 µM). Also, the “M. tuberculosis 103471 MIC” value with M. tuberculosis 103471 came to 0.3 µg/mL.
